“Also recorded” adds a separate entry of the source.
Key:
old mice = experiment: Four-limb hanging test; format: in vivo; details: old mice without muscle injury; for strength (average hang time): 7-day treatment; for learning: percent improvement from first to second hang time: before and after 7-day treatment
Experimental: To assay functional performance, Alk5i alone (low dose), OT alone, Alk5i+OT and control HBSS were dosed to old mice without muscle injury, using young mice injected with HBSS as an additional control. The four-limb hanging test was given to all mice before and after the 7-day treatment. In order to better focus the test on the learning and memory aspects (rather than strength) we examined the percent improvement of each individual animal from the first to the second test session among all studied cohorts.
A four-limb hanging test was conducted with mice before and after treatment by injection of oxytocin (OT), Alk5 inhibitor (A5i) or both, or control HBSS (young and old). The maximal hang time from two trials was considered and the percent change for each animal before and after treatment is shown. A difference is observed between young and all old cohorts (p<0.04) except for the old+Alk5i+OT where there is no statistically significant difference with the young (p=0.5) (test, 1 tail, heteroscedastic).
Four limb hanging test: Muscle strength and endurance were determined by timing how long mice can hang upside down from a wire screen, as published (27). Briefly, each mouse was placed on a 1 cm. mesh, 1 mm wire screen, 30 cm over soft bedding, inverted and timed until the mouse fell. Each animal was given two to three trials with at least a 5-minute rest between trials. Hanging index is expressed as the maximum hang time times the weight of the mouse, with longer times or greater weight for a given time considered better performance.

p21 [1] = details: high dose, old mice; cited from earlier work
[2] = system: neural stem cells (Sox-2+) in the subgranular zone of the Dentate Gyrus; experiment: Hippocampal neurogenesis in old mice (proliferating Sox-2+ neural stem cells in SGZ); format: in vivo; details: old mice with CTX muscle injury, 7 days treatment, vs HBSS control
Experimental: In addition to the cohort that underwent muscle injury, we also performed a study with old mice that were not injured. Young mice administered with control HBSS served as control. […] Hippocampal neurogenesis was assayed in the same mice that were studied for muscle repair above and additionally for mice that were not injured by cardiotoxin. The numbers of proliferating neural stem cells (Sox2+Ki67+) cells per DG of SGZ of hippocampus were quantified in serial brain cryosections. […] NS=non-statistically significant. […] Scale bar=100 microns. […] Data quantification: Muscle regeneration indices were calculated by counting percent de-novo myofibers with central nuclei to total nuclei in multiple images of 10-micron muscle sections for independently treated animals. Muscle fibrosis was quantified by measuring fibrotic areas on Image J. These fibrotic areas were normalized to the area of the image taken at 20× (˜14000 micron^2). Hippocampal neurogenesis (Sox2+/Ki67+, Sox2/BrdU+), p16+SGZ cell numbers and CD45+ cell numbers were quantified by counting the number of respective cells (from multiple 25-35-micron IF brain sections) and for neurogenesis and p16+ cells, extrapolating these numbers to the total thickness of the dentate gyrus. […]

p16 = p16 protein in primary myotubes (Western Blotting); format: cell-based; details: 24 hours treatment
oxytocin receptor (OXTR) = experiment: OXTR expression in skeletal muscle by real-time qRT PCR; format: in vivo, C57.B6 mice; details: old mice, s.c. daily 7 days, compared to control HBSS
Experimental: Old C57.B6 male mice (23-24 mo) per were administered by subcutaneous injections with oxytocin (OXT), Alk5i, a mixture of OXT and Alk5i (OXT+Alk5i) or control in vivo for 7 days, daily. The expression levels of oxytocin receptor (OXTR) were assayed by real-time qRT PCR in skeletal muscle of these mice.
OT and/or A5i or control vehicle (HBSS) was injected subcutaneously to old male C57.B6 mice (23-24 month), daily for 7 days before sacrifice. 3 month C57.B6 male mice identically injected with HBSS were used as young controls
qPCR analysis: Tissue lysates from frozen muscle, liver, and brain embedded in OCT were prepared. 40 slices of 10 μm thick slices were collected and homogenized using QIAShredder (from QIAGEN). Total RNA was extracted with RNeasy Mini Kit (from QIAGEN) according to manufacturer's instructions. Reverse transcription was performed with Superscript III First-Stand Synthesis System (from Invitrogen) according to manufacturer's instructions. For real-time PCR amplification and quantification of gene of interest, 1 ug of total cDNA was used for the initial amplification using specific primers to each gene of interest; amplification was performed with a denaturation step at 95 C for 10 minutes, followed by 40 cycles of denaturation at 95 C for 15 seconds and primer extension at 60 C for 30 s. Real-time PCR was performed using iQ™ SYBR Green Supermix (from Bio-Rad) under CFX Connect Real-Time System (Bio-Rad). Reactions were run in triplicates. Housekeeping gene actin was used as an internal control to normalize the variability in expression levels, and results were analyzed using the 2-ΔΔCT method described (50).

muscle regeneration = details: short term subcutaneous injection; cited from earlier work
p21 [3] = details: pERK-dependent manner; cited from earlier work

Row | Compound | strength (average hang time) (old mice) | learning: percent improvement from first to second hang time (old mice) | p21 levels in brain (p21 [1]) | hippocampal neurogenesis (Sox2+Ki67+ cells) [2] | p16 protein levels in primary myotubes (p16) | OXTR expression levels in skeletal muscle (oxytocin receptor (OXTR)) | OXTR levels diminished by (oxytocin receptor (OXTR)) | OXTR expression levels in skeletal muscle (oxytocin receptor (OXTR); listed as OXT) | muscle regeneration in old mice (muscle regeneration) | CDKI p21 (p21 [3])
1 | 2-(3-(6-Methylpyridin-2-yl)-1H-pyrazol-4-yl)-1,5-naphthyridine [Alk5i] | young animals outperformed all old cohorts | did not show improvement | attenuates p21 levels in brain of old mice | failed to enhance the neurogenesis of the old animals | not either molecule alone | reduced the levels of the oxytocin receptor (OTR) | 2 fold |  |  | 
2 | CC[C@H](C)[C@@H]1NC(=O)[C@H](Cc2ccc(O)cc2)NC(=O)[C@@H](N)CSSC[C@@H](C(=O)N2CCC[C@H]2C(=O)N[C@@H](CC(C)C)C(=O)NCC(N)=O)NC(=O)[C@H](CC(N)=O)NC(=O)[C@H](CCC(N)=O)NC1=O [OT, Oxytocin] | young animals outperformed all old cohorts | did not show improvement |  | failed to enhance the neurogenesis of the old animals | not either molecule alone |  |  | had no effect; also recorded: did not have an effect on OXTR | able to restore muscle regeneration in old mice | down-modulate CDKI p21
